# Organism: Rattus norvegicus
# Type: toxicity, organism-based, Sprague-Dawley
# Conditions: in vivo, po, 24 h, route oral GAVAGE, time 1 day, vehicle .5 % CMC; for ABSOLUTE EOSINOPHIL / ABSOLUTE LYMPHOCYTE / ABSOLUTE MONOCYTE / ABSOLUTE SEGMENTED NEUTROPHIL / BASOPHIL / EOSINOPHIL / ERYTHROCYTE COUNT / HEMATOCRIT / HEMOGLOBIN / LEUKOCYTE COUNT / LYMPHOCYTE / MEAN CORPUSCULAR HEMOGLOBIN / MEAN CORPUSCULAR HEMOGLOBIN CONCENTRATION / MEAN CORPUSCULAR VOLUME / MONOCYTE / NEUTROPHIL / NUCLEATED RED BLOOD CELLS / PLATELET COUNT: tissue Blood; for ALANINE AMINOTRANSFERASE / ALBUMIN / ALKALINE PHOSPHATASE / ASPARTATE AMINOTRANSFERASE / BLOOD UREA NITROGEN / CARBON DIOXIDE / CHLORIDE / CHOLESTEROL / CREATININE / GLUCOSE / LACTATE DEHYDROGENASE / LIPASE / PHOSPHORUS / POTASSIUM / SODIUM / TOTAL BILIRUBIN / TOTAL PROTEIN / URIC ACID: tissue Plasma
# [1] = 0 mg/kg, vehicle control, dose level Control
# Description: DrugMatrix - Regimen: Single
structure (smiles),measurement,setting,value
ClC(Cl)Br [BROMODICHLOROMETHANE],ABSOLUTE EOSINOPHIL,[1],150 CELLS/uL
same,ABSOLUTE LYMPHOCYTE,[1],13279.83 CELLS/uL
same,ABSOLUTE MONOCYTE,[1],654.5 CELLS/uL
same,ABSOLUTE SEGMENTED NEUTROPHIL,[1],1565.67 CELLS/uL
same,BASOPHIL,[1],0%
same,EOSINOPHIL,[1],1%
same,ERYTHROCYTE COUNT,[1],5.36 x10E6/uL
same,HEMATOCRIT,[1],33.37%
same,HEMOGLOBIN,[1],12.52 G/DL
same,LEUKOCYTE COUNT,[1],15.65 x10E3/uL
same,LYMPHOCYTE,[1],84.83%
same,MEAN CORPUSCULAR HEMOGLOBIN,[1],23.4 pg
same,MEAN CORPUSCULAR HEMOGLOBIN CONCENTRATION,[1],37.52 G/DL
same,MEAN CORPUSCULAR VOLUME,[1],62.32 fL
same,MONOCYTE,[1],4.17%
same,NEUTROPHIL,[1],10%
same,NUCLEATED RED BLOOD CELLS,[1],0 /100WBC
same,PLATELET COUNT,[1],1020 x10E3/uL
same,ALANINE AMINOTRANSFERASE,[1],49 u/L
same,ALBUMIN,[1],4.47 G/DL
same,ALKALINE PHOSPHATASE,[1],361.17 u/L
same,ASPARTATE AMINOTRANSFERASE,[1],78.67 u/L
same,BLOOD UREA NITROGEN,[1],13.17 mg/dL
same,CARBON DIOXIDE,[1],29.67 mmol/L
same,CHLORIDE,[1],100.83 MEQ/L
same,CHOLESTEROL,[1],82.17 mg/dL
same,CREATININE,[1],0.15 mg/dL
same,GLUCOSE,[1],150.83 mg/dL
same,LACTATE DEHYDROGENASE,[1],239.17 u/L
same,LIPASE,[1],7.83 u/L
same,PHOSPHORUS,[1],13.82 mg/dL
same,POTASSIUM,[1],6.62 MEQ/L
same,SODIUM,[1],144.25 MEQ/L
same,TOTAL BILIRUBIN,[1],0.15 mg/dL
same,TOTAL PROTEIN,[1],6.2 G/DL
same,URIC ACID,[1],1.57 mg/dL
same,ABSOLUTE EOSINOPHIL,"430 mg/kg, dose level High",41.33 CELLS/uL
same,ABSOLUTE LYMPHOCYTE,"430 mg/kg, dose level High",10502.67 CELLS/uL
same,ABSOLUTE MONOCYTE,"430 mg/kg, dose level High",677 CELLS/uL
same,ABSOLUTE SEGMENTED NEUTROPHIL,"430 mg/kg, dose level High",1645.67 CELLS/uL
same,BASOPHIL,"430 mg/kg, dose level High",0%
same,EOSINOPHIL,"430 mg/kg, dose level High",0.33%
same,ERYTHROCYTE COUNT,"430 mg/kg, dose level High",6.1 x10E6/uL
same,HEMATOCRIT,"430 mg/kg, dose level High",36.03%
same,HEMOGLOBIN,"430 mg/kg, dose level High",13.4 G/DL
same,LEUKOCYTE COUNT,"430 mg/kg, dose level High",12.87 x10E3/uL
same,LYMPHOCYTE,"430 mg/kg, dose level High",81.67%
same,MEAN CORPUSCULAR HEMOGLOBIN,"430 mg/kg, dose level High",21.97 pg
same,MEAN CORPUSCULAR HEMOGLOBIN CONCENTRATION,"430 mg/kg, dose level High",37.2 G/DL
same,MEAN CORPUSCULAR VOLUME,"430 mg/kg, dose level High",59.07 fL
same,MONOCYTE,"430 mg/kg, dose level High",5.33%
same,NEUTROPHIL,"430 mg/kg, dose level High",12.67%
same,NUCLEATED RED BLOOD CELLS,"430 mg/kg, dose level High",0 /100WBC
same,PLATELET COUNT,"430 mg/kg, dose level High",1251 x10E3/uL
same,ALANINE AMINOTRANSFERASE,"430 mg/kg, dose level High",62 u/L
same,ALBUMIN,"430 mg/kg, dose level High",4.77 G/DL
same,ALKALINE PHOSPHATASE,"430 mg/kg, dose level High",394.67 u/L
same,ASPARTATE AMINOTRANSFERASE,"430 mg/kg, dose level High",108 u/L
same,BLOOD UREA NITROGEN,"430 mg/kg, dose level High",16.33 mg/dL
same,CARBON DIOXIDE,"430 mg/kg, dose level High",25 mmol/L
same,CHLORIDE,"430 mg/kg, dose level High",103 MEQ/L
same,CHOLESTEROL,"430 mg/kg, dose level High",68 mg/dL
same,CREATININE,"430 mg/kg, dose level High",0.18 mg/dL
same,GLUCOSE,"430 mg/kg, dose level High",128.67 mg/dL
same,LACTATE DEHYDROGENASE,"430 mg/kg, dose level High",323 u/L
same,LIPASE,"430 mg/kg, dose level High",10 u/L
same,PHOSPHORUS,"430 mg/kg, dose level High",11.43 mg/dL
same,POTASSIUM,"430 mg/kg, dose level High",5.73 MEQ/L
same,SODIUM,"430 mg/kg, dose level High",144.9 MEQ/L
same,TOTAL BILIRUBIN,"430 mg/kg, dose level High",0.17 mg/dL
same,TOTAL PROTEIN,"430 mg/kg, dose level High",6.5 G/DL
same,URIC ACID,"430 mg/kg, dose level High",1.7 mg/dL
